The source of these data is patent US7566530B2 (priority 2004, dated 2009).

Read-outs that look alike come from different tables or passages of the source.

The subject of one assay is PrP^sc. In kind it is biochemical, bovine. Particulars: for location of PrP^sc bands (starting supernatant or pellet) after centrifugation: 2.5, 5, 10 mg added to 50 μl PrP^sc sample, 37° C. 1 h; for location of PrP^sc bands (starting supernatant or pellet) after centrifugation / crosslinking and precipitation of PrP: FIG. 4; for crosslinking and precipitation of PrP: simple centrifuge, no ultracentrifugation.

A further assay relates to PrP^res. Format: biochemical, human.

On to `[H]/N=C(/N)N[C@H]1[C@H](O)[C@@H](O)[C@H](O[C@@H]2O[C@@H](C)[C@](O)(C=O)[C@H]2O[C@@H]2O[C@@H](CO)[C@H](O)[C@@H](O)[C@@H]2NC)[C@@H](N/C(N)=N\[H])[C@@H]1O` [streptomycin], for which the “location of PrP^sc bands (starting supernatant or pellet) after centrifugation” value with PrP^sc (12 000 rpm 5 min) is on record as “the PrP^sc material is found in the pellet”. Moreover, the “crosslinking and precipitation of PrP” value in the assay with PrP^sc is recorded as “induces crosslinking of PrP which allows complete precipitation thereof”.

Regarding `NCCNCCNCCN` [triethylenetetramine], the “apparent molecular mass of the prion protein bands compared to a control without molecule” value with PrP^sc (105-840 μg TET added to 5 μl PrP^sc (250 μg brain), supernatant, FIG. 5) is “induces an increase in the apparent molecular mass of the prion protein”. In addition, the “crosslinking of PrP versus dose” value with PrP^sc (105-840 μg TET, FIG. 5) is given as “a crosslinking of PrP proportional to the dose of TET”.

Consider `NCCCNCCCN` [bis-3-aminopropylamine], for which the “apparent molecular mass of the prion protein bands compared to a control without molecule” value in the assay with PrP^sc (130-1040 μg added to 5 μl PrP^sc, 30 min room temperature, pellet supernatant, FIG. 6) is listed as “induces an increase in the apparent molecular mass of the 3 prion protein bands”. In addition, in the assay on PrP^sc (130-1040 μg, 12 000 rpm 5 min, FIG. 6), the “precipitation of the prion protein on centrifugation” value is recorded as “the prion protein precipitates”.

On to heparin, for which the “sensitivity and specificity of detection of PrP^res of lymphoid origin in blood samples” value in the assay with PrP^res is “confirms the sensitivity and the specificity of detection of PrP^res”.

With `CN[C@@H]1[C@H](O[C@H]2[C@H](O[C@H]3[C@H](O)[C@@H](O)[C@H](NC(=N)N)[C@@H](O)[C@@H]3NC(=N)N)O[C@@H](C)[C@]2(O)CO)O[C@@H](CO)[C@H](O)[C@H]1O` [dihydrostreptomycin sesquisulfate], in the assay on PrP^sc (12 000 rpm 5 min), the “location of PrP^sc bands (starting supernatant or pellet) after centrifugation” value was “the PrP^sc material is found in the pellet”. The “crosslinking and precipitation of PrP” value with PrP^sc was “induces crosslinking of PrP which allows complete precipitation thereof”.
